The results in this text go back to patent US8536160B2, “Azaheterocyclyl derivatives of androstanes and androstenes as medicaments for cardiovascular disorders” (priority 2006, dated 2013).

Structures can show the parent of a compound that is named as a salt. Where two headings read alike, the source gives them in different places.

For data set [1], the target named is Dog Kidney Na+, K+-ATPase (Canis lupus familiaris, UniProt P50997). Nature of the data set: Inhibition of the enzymatic activity of purified Na+,K+-ATPase (hydrolysis of 32P-ATP). Type of data set: biochemical.
For the next data set, the system named is anesthetized guinea-pig. As to the kind of experiment: Inotropic effect and lethal dose, slow intravenous infusion in anesthetized guinea-pig. Type of data set: in vivo. Further details: Maximum dose infused: unit not given here. The settings on record: for Emax / ED80 / ED (max): Cavia porcellus, iv, 1.5 h; for Emax: maximum increase in contractile force, read-out: Emax % increase in +dP/dTmax; for ED80: read-out: ED80 (inotropic potency, dose increasing +dP/dTmax by 80%); for ED (max): read-out: EDmax (dose inducing maximum positive inotropic effect); for % decrease from Emax after 20 min from the end of the infusion: duration of the inotropic effect; for Maximum dose infused: maximum dose infused in the survived animals.

The mark [2] stands for this setting: read-out: Na+, K+-ATPase Inhibition IC50.
[3] abbreviates: slow i.v. infusion over 90 minutes, anesthetized guinea-pig.
Where [4] appears, read: slow i.v. infusion over 90 minutes.
[5] abbreviates: dog kidney enzyme, hydrolysis of 32P-ATP in presence and absence of compound, read-out: Na+, K+-ATPase Inhibition IC50.

Description for anesthetized guinea-pig: The inotropic activity is shown as maximum increase in contractile force (Emax measured as +dP/dTmax), dose inducing maximum positive inotropic effect (EDmax), inotropic potency (ED80, dose increasing +dP/dTmax by 80%); the toxicity, as the ratio between lethal dose and inotropic potency, or safety ratio, (calculated for the died animals); the maximum dose infused in the survived animals; the duration of the inotropic effect as the decrease of the effect from the EDmax measured 20 minutes after the end of the infusion.

In data set [1] (Na+, K+-ATPase Inhibition IC50), `C[C@H]1C[C@@H]2[C@H](CC[C@]3(C)C(=O)CC[C@@H]23)[C@@]2(C)CC/C(=N\O[C@@H]3CCNC3)CC12` (stereo partly drawn) [I-aw, (E) 3-[3-(R)-Pyrrolidinyl]oxyimino-6α-methylandrostane-17-one fumarate] yielded an IC50 of 340 nM.
“3β-(3-(R,S)-Piperidinylcarbonyloxy)androstane-6,7-dione hydrochloride [I-cv]”: the IC50 in data set [1] (setting [2]) was 92000 nM.
On the same count and under the same terms, next, `C[C@]12CCC(=NO[C@H]3CCNC3)C=C1/C(=N/O)C[C@@H]1[C@@H]2CC[C@]2(C)C(=O)CC[C@@H]12` [I-dv, (E,Z) 3-[3-(S)-Pyrrolidinyl]oxyimino-6-(E)-hydroxyiminoandrost-4-ene-17-one fumarate]: 220 nM.
Take `CC12CCC3C(CC(=NO)C4CC(=NOC5CCNC5)CCC43C)C1CCC2=O` (mixture of isomers) [I-av, (E,Z) 3-[3-(R)-Pyrrolidinyl]oxyimino-6(E)-hydroxyiminoandrostan-17-one hydrochloride]: in the data set with anesthetized guinea-pig (setting [3]), the Emax came to 144%, the ED80 is 1.49 µmol/kg, the ED (max) was 4.3 µmol/kg and the Dead/treated was 0/3. In addition, the “% decrease from Emax after 20 min from the end of the infusion” value in the data set on anesthetized guinea-pig (anesthetized guinea-pig) came to 100%. This compound also came in with a Maximum dose infused in the data set on anesthetized guinea-pig (setting [4]) of 6.3.
Take `CO/N=C1\C[C@H]2[C@@H]3CCC(=O)[C@@]3(C)CC[C@@H]2[C@@]2(C)CC/C(=N\O[C@H]3CCN(C)C3)C[C@]12O` [I-by, (E) 3-[3′(S)-(1-Methyl)-pyrrolidinyl]oxyimino)-5α-hydroxy-6-(E)-methoxyiminoandrostane-17-one fumarate]: the IC50 in data set [1] (setting [5]) was determined as 12000 nM.
With `C[C@H]1C[C@@H]2[C@H](CC[C@]3(C)C(=O)CC[C@@H]23)[C@@]2(C)CC/C(=N/O[C@@H]3CCNC3)CC12` (stereo partly drawn) [I-ax, (Z) 3-[3-(R)-Pyrrolidinyl]oxyimino-6α-methylandrostane-17-one hydrochloride], the IC50 in data set [1] (Na+, K+-ATPase Inhibition IC50) amounted to 260 nM.
As for `C[C@]12CC/C(=N/O[C@H]3CCNC3)CC1[C@@H](CO)C(=O)[C@@H]1[C@@H]2CC[C@]2(C)C(=O)CC[C@@H]12` (stereo partly drawn) [I-di, (Z)-3-[3-(S)-Pyrrolidinyl)oxyimino]-6α-hydroxymethylandrostane-7,17-dione fumarate], the IC50 in data set [1] (Na+, K+-ATPase Inhibition IC50) came out at 210 nM.
Take “3α-[2-(Azetidin-3-yl)-(Z)-vinyl]androstane-6,7-dione formate [I-dh]”: the IC50 in data set [1] (setting [2]) is 830 nM.
Turning to `CN1CCC(ON=C2CCC3(C)C(C2)C(CO)C(=O)C2C4CCC(=O)C4(C)CCC23)C1` (mixture of isomers) [I-ct, (E,Z) 3-[3′-(R)-(1-Methyl)pyrrolidinyl]oxyimino-6α-hydroxymethylandrostane-7,17-dione fumarate], the IC50 in data set [1] (setting [5]) worked out at 270 nM.
The compound `C[C@]12CC[C@@H](/C=C\[C@@H]3CCNC3)CC1C(=O)C[C@@H]1[C@@H]2CC[C@]2(C)C(=O)CC[C@@H]12` (stereo partly drawn) [I-de, 3α-[2-(Pyrrolidin-3-(S)-yl)-(Z)-vinyl]androstane-6,17-dione formate] gave an IC50 in data set [1] (Na+, K+-ATPase Inhibition IC50) of 390 nM.
As to `C[C@H]1O[C@@H](O[C@H]2[C@@H](O)C[C@H](O[C@H]3[C@@H](O)C[C@H](O[C@H]4CC[C@@]5(C)[C@H](CC[C@@H]6[C@@H]5C[C@@H](O)[C@]5(C)[C@@H](C7=CC(=O)OC7)CC[C@]65O)C4)O[C@@H]3C)O[C@@H]2C)C[C@H](O)[C@@H]1O` [digoxin, reference compound], in the data set with anesthetized guinea-pig (setting [3]), the Emax is 158%, the ED80 is 0.29 µmol/kg and the ED (max) turned out to be 0.65 µmol/kg. Further, the “% decrease from Emax after 20 min from the end of the infusion” value with anesthetized guinea-pig (anesthetized guinea-pig) was 100%. Also, the Maximum dose infused with anesthetized guinea-pig (setting [4]) is given as 1.16.
For the compound `C[C@]12CC[C@H]3[C@@H](C/C(=N\O)[C@@]4(O)CC(=NO[C@H]5CCNC5)CC[C@]34C)[C@@H]1CCC2=O` (mixture of isomers) [I-bq, (E,Z) 3-[3-(S)-Pyrrolidinyl]oxyimino-5α-hydroxy-6-(E)-hydroxyiminoandrostane-17-one hydrochloride], in the data set on anesthetized guinea-pig (setting [3]), the Emax stood at 380%, the ED80 worked out at 0.59 µmol/kg and the ED (max) came out at 3.72 µmol/kg. This compound gave a Maximum dose infused in the data set with anesthetized guinea-pig (setting [4]) of 18.7.
